Test results published in PMC12198407, “Preclinical and first-in-human of purinostat mesylate, a novel selective HDAC I/IIb inhibitor, in relapsed/refractory multiple myeloma and lymphoma” (Signal Transduction and Targeted Therapy, 2025).

What was measured:
[1] = Metabolite profiling in plasma, bile, urine, feces; type: in vivo, SD rats; settings: for share of plasma AUC0-96h: [14C] 3 mg/100 µCi/kg i.v.; for amount in bile, % of administered dose: 0 to 72 hours; for amount in feces, % of administered dose / amount in urine, % of administered dose: 0 to 168 hours
Experimental: Following a single intravenous administration of [14C] Purinostat Mesylate at a dose of 3 mg/100 µCi/kg in male and female rats, a total of 14 metabolites were identified, in addition to the parent compound. These were designated as M382, M396, M474, M475, M490, M516, M517, M532, M546, M548, M558, M666, M708a, and M708b. Among these, M382 is an acetylated product of the parent drug after N-dealkylation, M396 is a carboxylic acid derivative of M382, M474 is a reduction product of the parent drug, M475 is a hydroxylated product derived from the amino conversion of M474, M490 is a mono-oxidation product of M474, M516 is an acetylated product of M474, M517 is a hydroxylated product derived from the amino conversion of M516, M532 is an acetylated product of the parent drug, M546 is a methylated product of M532, M548 is a dioxidation product of M516, M558 is a glucuronic acid conjugate of M382, M666 is a glucuronic acid conjugate of the parent drug, M708a is a mono-oxidation glucuronic acid conjugate of M516, and M708b is a glucuronic acid conjugate of M532.

[2] = Chronic toxicity test, 4 weeks; type: in vivo, rats
Experimental: In this study, the low, medium, and high dose groups were set at 3, 10, and 30 mg/kg, respectively. The blank formulation was set at low and high doses of 45 and 450 mg/kg, corresponding to the doses of hydroxypropyl beta-cyclodextrin in the low and high dose groups of injectable Purinostat Mesylate. Dosing occurred once every two days, three times a week, for a total of four weeks, with some animals undergoing a four-week recovery period after the treatment ended. The main results indicated no mortality. In the high-dose group, symptoms included sparse fur, reduced activity, and scabbing at the injection site. […] The primary toxic target organs or systems included the immune system (spleen, thymus, various lymph nodes), submandibular gland, bone marrow, testis, and epididymis.

Solubility of the API = type: physicochemical

Q: What does the source list for `CN(Cc1nc2c(N3CCOCC3)nc(-c3ccc(N)cc3)nc2n1C)c1ncc(C(=O)NO)cn1.CS(=O)(=O)O` [PM, 2-(((2-(4-Aminophenyl)-9-methyl-6-(4-morpholinyl)-9H-purine-8-yl)methyl)methylamino)-N-hydroxy-5-pyrimidine-carboxamide Mesylate]?
A: share of plasma AUC0-96h ([1]; female rats): 11.15%; amount in bile, % of administered dose ([1]; females): 2.45%; amount in feces, % of administered dose ([1]; females): 0.84%; amount in urine, % of administered dose ([1]; females): 0.35%; share of plasma AUC0-96h ([1]; male rats): 8.79%; amount in bile, % of administered dose ([1]; males): 2.47%; amount in feces, % of administered dose ([1]; males): 0.94%; amount in urine, % of administered dose ([1]; males): 0.66%; mortality ([2]; 3, 10, 30 mg/kg): no mortality; highest no serious toxicity dose (HNSTD) ([2]; three times a week, four weeks): 30 mg/kg; Solubility (Solubility of the API; 0.1 mol/L hydrochloric acid solution): practically insoluble; Solubility (Solubility of the API; 0.1 mol/L sodium hydroxide solution): very slightly soluble; Solubility (Solubility of the API; dimethyl sulfoxide): soluble; Solubility (Solubility of the API; dimethylformamide): slightly soluble; Solubility (Solubility of the API; ethanol, ethyl acetate, or chloroform): practically insoluble; Solubility (Solubility of the API; methanol): very slightly soluble
